Some targets named below: PIP5K1C (Homo sapiens, UniProt O60331); AURKB (Homo sapiens, UniProt Q96GD4); RIOK1 (Homo sapiens, UniProt Q9BRS2); SYK (Homo sapiens, UniProt P43405); PIK3CA(Q546K) (Homo sapiens, UniProt P42336, Q546K); PIM1 (Homo sapiens, UniProt P11309); WNK4 (Homo sapiens, UniProt Q96J92); MTOR (Homo sapiens, UniProt P42345); PIK3CA(E542K) (Homo sapiens, UniProt P42336, E542K); PKMYT1 (Homo sapiens, UniProt Q99640); PLK2 (Homo sapiens, UniProt Q9NYY3).

Experiment in all cases: biochemical
Parameters in all cases: DiscoverX KINOMEscan scanMAX competition binding panel, single concentration, percent of control; remaining binding: dose or concentration left out as unconfirmed
What all share (details): KINOMEscan binding, percent of control; read-out: Table S4_SCANMAX REPORT - related to Fig. 1 / Percent Control

For experiment [1], the target named is T1, RPS6KA5(Kin.Dom.2-C-terminal) (Homo sapiens, UniProt O75582).
T1 construct: Kin.Dom.2-C-terminal

Experiment [2] deals with T2, RSK3(Kin.Dom.2-C-terminal) (Homo sapiens, UniProt Q15349).
T2 construct: gene RPS6KA2; Kin.Dom.2-C-terminal

In another experiment the target is T3, p38-delta (Homo sapiens, UniProt O15264).
T3 construct: gene MAPK13

Experiment [3] deals with T4, JAK2(JH1domain-catalytic) (Homo sapiens, UniProt O60674).
T4 construct: JH1domain-catalytic

The target in another experiment is T5, TIE2 (Homo sapiens, UniProt Q02763).
T5 construct: gene TEK

Another experiment deals with T6, CDK11 (Homo sapiens, UniProt Q9BWU1).
T6 construct: gene CDK19

The next experiment addresses T7, PFTAIRE2 (Homo sapiens, UniProt Q96Q40).
T7 construct: gene CDK15

Structures are written as SMILES.

PLK2, sequence (Q9NYY3 whole entry): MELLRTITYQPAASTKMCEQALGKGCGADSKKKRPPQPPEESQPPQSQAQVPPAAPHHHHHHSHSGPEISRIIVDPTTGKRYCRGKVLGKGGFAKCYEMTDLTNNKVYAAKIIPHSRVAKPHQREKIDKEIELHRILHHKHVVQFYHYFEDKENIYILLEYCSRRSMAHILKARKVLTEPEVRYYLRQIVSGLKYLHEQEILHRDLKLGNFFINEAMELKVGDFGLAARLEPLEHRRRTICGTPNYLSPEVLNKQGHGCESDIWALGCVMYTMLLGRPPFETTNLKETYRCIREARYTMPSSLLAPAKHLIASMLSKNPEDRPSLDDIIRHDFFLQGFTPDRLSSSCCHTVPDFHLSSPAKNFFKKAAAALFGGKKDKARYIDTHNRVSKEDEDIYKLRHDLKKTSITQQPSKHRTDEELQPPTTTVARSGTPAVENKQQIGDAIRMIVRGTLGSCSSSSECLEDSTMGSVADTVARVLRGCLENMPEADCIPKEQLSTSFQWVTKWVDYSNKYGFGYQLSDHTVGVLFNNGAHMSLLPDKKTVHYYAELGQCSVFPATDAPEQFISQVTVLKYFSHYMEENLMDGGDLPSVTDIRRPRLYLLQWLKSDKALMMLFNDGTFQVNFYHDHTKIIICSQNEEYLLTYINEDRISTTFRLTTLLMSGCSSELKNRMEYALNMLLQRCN
WNK4, sequence (Q96J92 whole entry): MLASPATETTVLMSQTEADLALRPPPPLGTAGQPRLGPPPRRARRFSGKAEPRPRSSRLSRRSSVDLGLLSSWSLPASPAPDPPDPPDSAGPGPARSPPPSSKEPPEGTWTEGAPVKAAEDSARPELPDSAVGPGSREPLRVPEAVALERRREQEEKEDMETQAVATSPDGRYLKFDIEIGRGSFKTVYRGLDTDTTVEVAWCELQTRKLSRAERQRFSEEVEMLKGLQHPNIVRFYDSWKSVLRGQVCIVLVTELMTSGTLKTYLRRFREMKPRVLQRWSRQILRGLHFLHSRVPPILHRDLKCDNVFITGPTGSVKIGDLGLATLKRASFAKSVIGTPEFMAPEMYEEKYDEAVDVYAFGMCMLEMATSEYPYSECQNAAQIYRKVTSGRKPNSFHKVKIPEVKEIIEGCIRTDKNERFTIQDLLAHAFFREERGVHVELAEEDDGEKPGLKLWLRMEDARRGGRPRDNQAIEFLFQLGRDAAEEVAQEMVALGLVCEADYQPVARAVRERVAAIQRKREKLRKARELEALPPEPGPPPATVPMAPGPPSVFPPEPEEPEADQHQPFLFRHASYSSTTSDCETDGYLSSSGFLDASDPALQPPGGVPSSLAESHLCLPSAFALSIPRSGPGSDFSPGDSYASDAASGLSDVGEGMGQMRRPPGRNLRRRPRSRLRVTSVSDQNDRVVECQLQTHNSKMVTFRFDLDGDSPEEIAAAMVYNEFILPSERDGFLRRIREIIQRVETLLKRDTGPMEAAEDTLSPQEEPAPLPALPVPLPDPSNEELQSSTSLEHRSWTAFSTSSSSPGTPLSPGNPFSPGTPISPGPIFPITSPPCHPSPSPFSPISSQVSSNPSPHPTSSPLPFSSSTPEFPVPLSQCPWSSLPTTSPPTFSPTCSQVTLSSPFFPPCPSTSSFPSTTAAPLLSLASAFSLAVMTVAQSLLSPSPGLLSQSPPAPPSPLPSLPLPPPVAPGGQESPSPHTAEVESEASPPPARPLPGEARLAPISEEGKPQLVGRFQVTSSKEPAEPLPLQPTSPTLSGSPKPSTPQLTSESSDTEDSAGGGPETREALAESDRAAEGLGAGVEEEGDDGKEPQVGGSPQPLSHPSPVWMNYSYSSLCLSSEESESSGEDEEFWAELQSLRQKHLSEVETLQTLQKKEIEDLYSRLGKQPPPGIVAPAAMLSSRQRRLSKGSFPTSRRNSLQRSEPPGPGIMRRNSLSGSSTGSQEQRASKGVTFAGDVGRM
PIM1, sequence (P11309 whole entry): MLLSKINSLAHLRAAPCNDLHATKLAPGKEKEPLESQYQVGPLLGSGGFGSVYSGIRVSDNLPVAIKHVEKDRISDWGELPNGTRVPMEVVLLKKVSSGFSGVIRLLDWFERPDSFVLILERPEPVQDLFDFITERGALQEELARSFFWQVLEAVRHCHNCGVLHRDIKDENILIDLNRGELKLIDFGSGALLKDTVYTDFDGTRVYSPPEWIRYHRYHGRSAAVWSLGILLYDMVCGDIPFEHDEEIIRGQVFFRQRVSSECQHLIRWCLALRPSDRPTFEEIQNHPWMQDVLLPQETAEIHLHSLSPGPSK
T5 sequence (Q02763 whole entry): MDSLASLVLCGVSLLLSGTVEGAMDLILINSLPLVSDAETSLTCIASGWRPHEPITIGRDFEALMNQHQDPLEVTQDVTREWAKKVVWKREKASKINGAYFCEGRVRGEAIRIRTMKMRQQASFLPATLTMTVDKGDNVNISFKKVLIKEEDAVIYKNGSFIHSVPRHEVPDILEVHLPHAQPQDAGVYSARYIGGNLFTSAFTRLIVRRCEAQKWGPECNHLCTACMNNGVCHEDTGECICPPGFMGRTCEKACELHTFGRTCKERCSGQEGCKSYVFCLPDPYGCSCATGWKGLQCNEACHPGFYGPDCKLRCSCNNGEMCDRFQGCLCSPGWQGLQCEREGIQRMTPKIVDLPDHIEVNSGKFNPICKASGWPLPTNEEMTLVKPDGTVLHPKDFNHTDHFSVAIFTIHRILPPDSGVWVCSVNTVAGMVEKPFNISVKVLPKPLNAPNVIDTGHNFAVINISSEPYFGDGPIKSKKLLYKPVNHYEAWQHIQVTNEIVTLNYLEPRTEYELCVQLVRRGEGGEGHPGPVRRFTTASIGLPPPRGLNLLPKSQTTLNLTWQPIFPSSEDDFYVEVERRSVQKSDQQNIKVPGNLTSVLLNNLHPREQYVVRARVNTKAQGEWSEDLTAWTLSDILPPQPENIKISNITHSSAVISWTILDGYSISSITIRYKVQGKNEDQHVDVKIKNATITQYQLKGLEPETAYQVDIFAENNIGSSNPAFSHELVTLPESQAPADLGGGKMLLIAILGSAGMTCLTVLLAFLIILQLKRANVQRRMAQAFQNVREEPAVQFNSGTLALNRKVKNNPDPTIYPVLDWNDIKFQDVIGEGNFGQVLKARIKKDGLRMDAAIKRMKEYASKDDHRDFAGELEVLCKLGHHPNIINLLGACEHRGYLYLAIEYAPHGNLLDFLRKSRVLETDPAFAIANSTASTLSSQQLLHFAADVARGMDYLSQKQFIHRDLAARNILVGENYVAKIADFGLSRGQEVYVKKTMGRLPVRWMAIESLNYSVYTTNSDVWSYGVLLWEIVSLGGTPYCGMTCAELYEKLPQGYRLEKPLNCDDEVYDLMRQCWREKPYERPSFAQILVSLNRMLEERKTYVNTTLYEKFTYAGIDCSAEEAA
PIP5K1C, sequence (O60331 whole entry): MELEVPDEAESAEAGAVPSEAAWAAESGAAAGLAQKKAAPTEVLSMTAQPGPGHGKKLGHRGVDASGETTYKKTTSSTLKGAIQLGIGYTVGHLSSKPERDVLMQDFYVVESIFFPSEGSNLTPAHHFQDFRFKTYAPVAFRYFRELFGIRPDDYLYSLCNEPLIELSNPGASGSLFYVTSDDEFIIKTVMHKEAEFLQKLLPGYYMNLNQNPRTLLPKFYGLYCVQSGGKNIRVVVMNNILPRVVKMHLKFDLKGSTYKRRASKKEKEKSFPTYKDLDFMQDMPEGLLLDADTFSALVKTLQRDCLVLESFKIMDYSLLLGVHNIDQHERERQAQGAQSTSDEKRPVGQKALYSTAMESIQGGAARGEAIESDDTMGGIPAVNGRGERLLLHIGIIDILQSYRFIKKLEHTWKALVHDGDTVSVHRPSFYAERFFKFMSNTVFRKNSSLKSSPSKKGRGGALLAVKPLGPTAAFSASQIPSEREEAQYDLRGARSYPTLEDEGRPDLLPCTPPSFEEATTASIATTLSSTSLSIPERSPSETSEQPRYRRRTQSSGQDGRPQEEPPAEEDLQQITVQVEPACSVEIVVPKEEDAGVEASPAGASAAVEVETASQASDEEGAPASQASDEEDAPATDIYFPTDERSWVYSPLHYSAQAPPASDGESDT
AURKB, sequence (Q96GD4 whole entry): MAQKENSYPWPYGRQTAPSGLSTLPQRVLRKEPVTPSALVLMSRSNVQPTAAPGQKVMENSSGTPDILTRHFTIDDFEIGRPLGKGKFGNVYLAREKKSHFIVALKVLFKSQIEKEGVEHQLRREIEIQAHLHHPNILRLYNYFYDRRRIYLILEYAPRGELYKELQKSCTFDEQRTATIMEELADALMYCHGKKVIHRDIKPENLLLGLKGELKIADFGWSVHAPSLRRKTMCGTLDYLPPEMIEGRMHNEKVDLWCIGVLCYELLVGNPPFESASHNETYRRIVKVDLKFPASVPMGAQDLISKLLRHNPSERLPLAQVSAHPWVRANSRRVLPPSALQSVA
T6 sequence (Q9BWU1 whole entry): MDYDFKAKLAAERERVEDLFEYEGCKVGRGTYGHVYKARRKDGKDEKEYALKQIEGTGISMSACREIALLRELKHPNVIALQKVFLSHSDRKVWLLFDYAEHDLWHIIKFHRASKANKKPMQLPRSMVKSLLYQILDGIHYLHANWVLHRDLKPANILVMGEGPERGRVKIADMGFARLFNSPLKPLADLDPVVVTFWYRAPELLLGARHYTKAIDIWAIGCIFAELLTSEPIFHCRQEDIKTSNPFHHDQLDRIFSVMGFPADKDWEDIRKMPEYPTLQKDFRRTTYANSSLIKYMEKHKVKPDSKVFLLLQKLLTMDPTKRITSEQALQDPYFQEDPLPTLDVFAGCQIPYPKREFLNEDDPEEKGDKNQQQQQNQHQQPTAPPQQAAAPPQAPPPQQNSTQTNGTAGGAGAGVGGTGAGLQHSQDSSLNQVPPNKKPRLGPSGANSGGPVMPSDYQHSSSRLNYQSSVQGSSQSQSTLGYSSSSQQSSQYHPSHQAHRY

For `c1ccc2c(c1)Sc1ccccc1N2CCN1CCOCC1` [J54], the remaining binding was 100% on PIP5K1C; 100% in [1]; 100% at AURKB; 59% on RIOK1; 97% in experiment [2]; 100% on SYK. In addition, the remaining binding on p38-delta stood at 100%; on PIK3CA(Q546K), 100%; in [3], 95%; on PIM1 it was 81%; at WNK4, 91%; on TIE2, 76%. For the same compound, the remaining binding at CDK11 worked out at 81%; at PFTAIRE2, 100%; at PIK3CA(E542K) it was 100%; on PKMYT1 it was 100%; on PLK2, 100%. Also, the remaining binding at 15 µM at MTOR worked out at 100%.

Values taken from publication PMC7486443, “Generation of Phenothiazine with Potent Anti-TLK1 Activity for Prostate Cancer Therapy” (iScience, 2020).
